Assay [1] concerns untransformed tobacco explants. Put plainly: Explants on MS agar containing mesotrione, bleaching. It counts as in vivo. Particulars: MS agar + 3% sucrose. An excerpt: Explants (i.e. a leaf plus short segment of stem containing the auxiliary bud) are placed into MS agar (+3% sucrose) containing various concentrations of mesotrione (see above) from 0.02 to 2 ppm. In tobacco, for example, untransformed explants are fully bleached at 0.02 ppm. […] In these particular experiments, only the shoot that develops from the bud is bleached, the leaf on the explanted tissue remains green.

Assay [2] has as its system tobacco plants transformed to express wheat HPPD. Put plainly: Tolerance of tobacco transformed with wheat HPPD to herbicides. It counts as in vivo. Particulars: MS agar; a number of PCR+ve transformants (0.1), a sub-set (>0.2); listed as mesotrione.
Description: These constructs were all transformed into Agrobacterium tumefaciens strain LBA4404, which in turn was used to transform tobacco, using methodology described previously.
For assay [3], the target named is T1, Arabidopsis HPPD (Arabidopsis thaliana, UniProt P93836).
T1 construct: made in house; host or cells: E. coli BL21 (DE3) codon+ RP
T1 sequence (P93836 1-445): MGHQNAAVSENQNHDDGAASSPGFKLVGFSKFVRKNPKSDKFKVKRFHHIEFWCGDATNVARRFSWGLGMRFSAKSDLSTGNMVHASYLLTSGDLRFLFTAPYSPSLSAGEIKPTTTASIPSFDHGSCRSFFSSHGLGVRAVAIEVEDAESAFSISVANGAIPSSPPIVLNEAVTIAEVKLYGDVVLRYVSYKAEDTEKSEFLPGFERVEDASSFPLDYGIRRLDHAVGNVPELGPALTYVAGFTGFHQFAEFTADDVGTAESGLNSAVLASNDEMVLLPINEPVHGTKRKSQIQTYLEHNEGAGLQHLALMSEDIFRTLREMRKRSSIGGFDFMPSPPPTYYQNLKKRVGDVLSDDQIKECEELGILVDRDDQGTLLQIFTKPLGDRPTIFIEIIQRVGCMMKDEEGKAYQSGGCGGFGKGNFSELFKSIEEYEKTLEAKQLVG
Description: Dissociation of enzyme/inhibitor complexes by exchange with 14C-labelled inhibitor (koff; Kd = koff/kon). It is filed as binding. How it is done:
It will be appreciated that many suitable methods known in the art for determining such low koff values are suitable for working the current invention. These include measuring rates of exchange of radio or otherwise labelled inhibitors either with or away from the enzyme inhibitor complex. For example enzyme inhibitor complexes can readily be prepared by incubating HPPD preparations with labelled or unlabelled inhibitor and then, after suitable periods, optionally rapidly separating the thus formed enzyme inhibitor complex from excess inhibitor by any suitable method such as ultrafiltration, binding to filters or exchange down a gel filtration column. Exchange reactions with the, thus prepared enzyme inhibitor complex is then initiated by addition of, as appropriate, excess labelled or unlabelled inhibitor. […] Many methods such as radiometric, fluorimetric, NMR, fluorescence depolarisation, EPR, Mossbauer, UV/VIS spectrophotometry etc. or phonon resonance can, in principle, be used to monitor the enzyme/ligand exchange reactions and, particularly in this case where the enzyme contains an iron atom at the ligand binding site. Optionally, the monitoring method may be continuous (as, for example, with scintillation proximity/bead-based methods) or, discontinuous, based upon collection of data at various timepoints wherein samples are removed and the bound and unbound label components rapidly separated and quantitated.
Values of koff can suitably be calculated by computer fitting based upon is numerical integration of the exchange data along with information on the active-site concentration of HPPD and upon kon values obtained as described below. […] In any event, koff values are always here calculated from the rate of the major slow exchange reaction.
^14C mesotrione is of specific activity 1.12 GBq/mmol. […] Following this initial binding reaction, exchange reactions are initiated by addition of cold mesotrione to a final concentration of 60 μM and 200 μl aliquots removed at various times to rapid chromatography down a NAP5 gel filtration column equilibrated in 50 mM BTP at pH 7 containing 0.1 M KCl, separation into fractions containing protein-bound or free radiolabel and liquid scintillation counting.
Nevertheless, here, for practical purposes, koff values are always here calculated from the rate of the major slow exchange reaction.
Not all test inhibitors are readily available in a radiolabelled form.

Assay [4] has as its target T1, Arabidopsis HPPD. Put plainly: Inhibition of HPPD (E. coli extract) after pre-incubation with inhibitor. It counts as biochemical. Particulars: read-out: inhibition (relative to controls). As to the method: Qualitative measurements of the differences in Kd values in respect of different HPPD inhibitors are obtained by pre-incubating enzyme with inhibitor and, then, subsequently, measuring the % inhibition. For example HPPD is isolated from maize seedlings, part purified and assayed by similar methods to those described by Schulz et al 1993 (FEBS LETS. 318, 162-166) and by Secor (1994) in Plant Physiol. 106, 1429-1433. Assays are run for 30 minutes and started with addition of radiolabelled hydroxyphenylpyruvate (final concentration ˜0.1-0.2 mM) following a 20-30 min period over which inhibitor is pre-incubated with the part-purified enzyme.
Using the same assay method but using HPPD from Arabidopis (obtained from E. coli cells transformed to express the Arabidopsis HPPD and prepared as an E. coli extract similar to the methods described by Garcia et al in Plant Physiol (1999) 119, 1507-1516) the following levels of inhibition (relative to controls) are observed with the following doses of herbicide versus Arabidopsis HPPD.

Assay [5] relates to dicot plants. Put plainly: Herbicidal activity versus dicot plants averaged over 6 or more species. Particulars: in vivo. The text has this:
Activity versus dicot plants refers here to herbicidal activity averaged over a range of 6 or more of those dicot weed and crop species usually used in screens used for compound discovery in the agrochemical community. Herbicidal activity versus dicot plants also refers here to that activity which is due to the inhibitor per se rather than due to some, potentially more herbicidal, metabolite of it which may be formed in planta or otherwise.

Assay [6] deals with Wheat HPPD (Triticum aestivum, UniProt A0A3B6NLC6). Put plainly: kon from HPLC enzyme assay (progressive inhibition / timed pre-reaction). It is filed as biochemical. Particulars: for observed first order decay rate constant: 100 μM HPP (no inhibitor: 0.016).
Chain of Wheat HPPD (A0A3B6NLC6 entry or part of it): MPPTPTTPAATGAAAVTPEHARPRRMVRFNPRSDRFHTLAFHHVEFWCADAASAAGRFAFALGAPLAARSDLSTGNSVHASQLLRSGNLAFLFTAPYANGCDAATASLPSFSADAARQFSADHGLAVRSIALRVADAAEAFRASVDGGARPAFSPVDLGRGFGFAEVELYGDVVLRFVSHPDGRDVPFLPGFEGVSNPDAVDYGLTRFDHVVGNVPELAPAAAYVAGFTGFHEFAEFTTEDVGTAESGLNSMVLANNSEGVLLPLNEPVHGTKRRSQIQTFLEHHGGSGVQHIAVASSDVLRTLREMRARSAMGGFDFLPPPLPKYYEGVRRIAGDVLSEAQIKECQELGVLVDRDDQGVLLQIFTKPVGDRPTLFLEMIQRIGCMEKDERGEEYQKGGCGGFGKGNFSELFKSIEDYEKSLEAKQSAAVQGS
Description: Assay buffer is 105 μM (or as appropriate) hydroxyphenylpyruvate (HPP) is freshly made up in 50 mM Bis-Tris-propane buffer at pH 7.0. Dilution buffer is 50 mM Bis-Tris-propane buffer at pH 7.0 containing 25 mM sodium ascorbate and 3.8 mg/l of bovine catalase (Sigma C3155˜50,000 units/mg). HPPD enzyme, freshly unfrozen from storage is kept at ice temperature and diluted, also at ice temperature, to an appropriate concentration in dilution buffer (typically, 2-8 μM) before use. Assays are started by addition of 5 μl of diluted enzyme to 100 μl of assay buffer at 25 C in an eppendorf centrifuge and stopped, at a series of times between 0 and 90 s by addition of 20 μl of 25% perchloric acid and whirlimixing. 80-100 μl of the contents of each eppendorf tube is transferred to an HPLC vial prior to separation by Reverse Phase HPLC. For HPLC, 40 μl is loaded at 1.5 ml/min onto an Aqua C18 5μ 75×4.6 mm column (silica is endcapped) equilibrated with 5.5% acetonitrile, 0.1% trifluoroacetic acid (buffer A) using an HP 1100 HPLC system. The column is eluted, also at 1.5 ml/min, using a 2 minute wash with buffer A, followed by a 2 min wash with a 30/70 mixture of buffer A/100% acetonitrile followed by a further 3.5 minute wash with buffer A (in between uses the column is stored in 65% acetonitrile/water). The elution of HGA (homogentisic acid) and HPP(hydroxyphenylpyruvate) is monitored using a UV flow cell and quantitated via integration of peak absorbance at 292 nm. HGA elutes at around 2 minutes and HPP elutes later. A standard set of concentrations of HGA are used to provide a standard curve in order to calibrate the UV absorbance of the HGA peak versus HGA concentration.
In FIG. 3 assays containing 100 μM HPP substrate were started with addition of wheat HPPD to a final concentration of ˜19 nM and stopped at the times indicated.
In a more direct assay-based method for measuring kon values, test HPPD enzyme is reacted with inhibitor for a range of times and then the inhibition reaction is effectively stopped by addition of a high concentration of the (competitive) substrate HPP. […]

The structures appear in SMILES notation. Values joined by “and” are separate entries in the source; they are usually repeats but may differ in a detail not shown here. Equal entries are not always repeated. Where two headings read alike, the source gives them in different places.

What is called Kd is a measure of binding affinity in units of concentration. A word on the inhibition: it is the share of the control response that was lost under treatment. As for `CS(=O)(=O)c1ccc(C(=O)C2C(=O)CCCC2=O)c([N+](=O)[O-])c1` [Structure I, 2-(Nitro-4-methanesulphonylbenzoyl)-cyclohexane-1,3-dione, reference compound], in assay [1], the “concentration at which explants are fully bleached” value is listed as 0.02 ppm. For the same molecule, the “concentration tolerated with no indication of bleaching / plants looking normal” value in assay [2] was 0.1 ppm and > 0.2 ppm. Further, the Kd in assay [3] (Kd, value obtained + glycerol (in parentheses)) stood at 0.021 nM; in assay [3] (Kd, without glycerol, Kd = koff/kon), 0.014 nM. In addition, the inhibition at 0.001 µM in assay [4] (1 nM) came out at 42%. In addition, the inhibition at 0.01 µM in assay [4] (10 nM) was determined as 95%. Also, in assay [4] (100 nM), the inhibition at 0.1 µM is 100%. Also, in assay [4] (1000 nM), the inhibition at 1 µM came to 100%.

As usually defined, the koff is the rate constant with which the complex falls apart. Low values mean slow dissociation, high ones fast dissociation. In general, kon refers to the rate constant with which the complex forms. Higher therefore signals fast association. Consider `Cc1nc(C(F)(F)F)ccc1C(=O)C1C(=O)C2CCC(C2)C1=O` (centres unmarked) [Structure II], for which, in assay [3], the dissociation constant Kd amounted to 0.11 nM; the “ratio Kd2/Kd4, structure II to structure VII” value was found to be 3.4; the “ratio koff2/koff4, structure II to structure VII” value is 11 and 8.6. Further, the koff in assay [3] (without 25% v/v glycerol, exchange with 14C mesotrione) is about 1.16e-05 s⁻¹. Besides, the off-rate (koff) in assay [3] (− glycerol) was 1.16e-05 s⁻¹. The “herbicidal activity versus dicot plants relative to mesotrione” value in assay [5] was “at least a quarter of the herbicidal activity of mesotrione”. In assay [6], this molecule came in with a kon of 48000 to 57200 M⁻¹ s⁻¹. Besides, in assay [6] (2.5 μM inhibitor), the “observed first order decay rate constant” value worked out at 0.029 s⁻¹. Besides, the “observed first order decay rate constant” value in assay [6] (10 μM inhibitor) came out at 0.06 s⁻¹.

The record behind these values is patent US20090172831A1, “Methods for the production of plants resistant to HPPD herbicides” (Syngenta Limited, priority 2000, published 2009).
